Patent WO2016087994A1, “Btk inhibitors to treat solid tumors through modulation of the tumor microenvironment” (dated 2016)
Entries after “also recorded” stand apart in the source; their conditions may differ.

Tests used:
[1] = target: epidermal growth factor receptor (EGFR) (Homo sapiens, UniProt P00533); details: cited from earlier work
CD4 + T cells = assay: Th17 and Treg development of CD4+ T cells; type: cell-based
[2] = test system: rituximab-coated Raji cells; assay: Rituximab ADCC, chromium release, Raji targets; type: cell-based, human; details: 1 μM; healthy donor NK cells / Raji; listed as ibrutinib
CD8 + T cells [3] = assay: CD8+ T cell viability; type: cell-based; details: higher concentrations of ibrutinib; any concentration of Formula (II)
[4] = test system: CLL/lymphoid malignancies; details: human, in vivo; cited from earlier work
[5] = test system: CD8 + T cells with B lymphoblast targets; assay: Cytotoxic T cell (CTL) assay; type: cell-based; details: 500 nM, relative to vehicle
[6] = 420 mg QD; cited from earlier work
[7] = test system: GPVI platelet aggregation; assay: GPVI (convulxin-induced) human platelet aggregation; type: cell-based
CD8 + T cells [8] = assay: CD8+ T cell IFN-γ levels; type: cell-based; details: relative to vehicle
[9] = test system: B cell receptor (CD69 on CD19+ B cells); assay: Inhibition of BCR signaling (CD69) on B cells in whole blood; type: cell-based; details: Homo sapiens, 18 h
[10] = test system: human platelet-mediated thrombosis; assay: In vivo human platelet thrombus formation after laser injury in VWF HA1 mice; parameters: species or system human platelets in VWF HA1 mice
[11] = test system: metastatic pancreatic cancer; details: Phase 3; P < 0.001; cited from earlier work
CLL = details: cited from earlier work
[12] = Phase 1, previously treated CLL, monotherapy

epidermal growth factor receptor (EGFR), sequence (P00533 25-1210): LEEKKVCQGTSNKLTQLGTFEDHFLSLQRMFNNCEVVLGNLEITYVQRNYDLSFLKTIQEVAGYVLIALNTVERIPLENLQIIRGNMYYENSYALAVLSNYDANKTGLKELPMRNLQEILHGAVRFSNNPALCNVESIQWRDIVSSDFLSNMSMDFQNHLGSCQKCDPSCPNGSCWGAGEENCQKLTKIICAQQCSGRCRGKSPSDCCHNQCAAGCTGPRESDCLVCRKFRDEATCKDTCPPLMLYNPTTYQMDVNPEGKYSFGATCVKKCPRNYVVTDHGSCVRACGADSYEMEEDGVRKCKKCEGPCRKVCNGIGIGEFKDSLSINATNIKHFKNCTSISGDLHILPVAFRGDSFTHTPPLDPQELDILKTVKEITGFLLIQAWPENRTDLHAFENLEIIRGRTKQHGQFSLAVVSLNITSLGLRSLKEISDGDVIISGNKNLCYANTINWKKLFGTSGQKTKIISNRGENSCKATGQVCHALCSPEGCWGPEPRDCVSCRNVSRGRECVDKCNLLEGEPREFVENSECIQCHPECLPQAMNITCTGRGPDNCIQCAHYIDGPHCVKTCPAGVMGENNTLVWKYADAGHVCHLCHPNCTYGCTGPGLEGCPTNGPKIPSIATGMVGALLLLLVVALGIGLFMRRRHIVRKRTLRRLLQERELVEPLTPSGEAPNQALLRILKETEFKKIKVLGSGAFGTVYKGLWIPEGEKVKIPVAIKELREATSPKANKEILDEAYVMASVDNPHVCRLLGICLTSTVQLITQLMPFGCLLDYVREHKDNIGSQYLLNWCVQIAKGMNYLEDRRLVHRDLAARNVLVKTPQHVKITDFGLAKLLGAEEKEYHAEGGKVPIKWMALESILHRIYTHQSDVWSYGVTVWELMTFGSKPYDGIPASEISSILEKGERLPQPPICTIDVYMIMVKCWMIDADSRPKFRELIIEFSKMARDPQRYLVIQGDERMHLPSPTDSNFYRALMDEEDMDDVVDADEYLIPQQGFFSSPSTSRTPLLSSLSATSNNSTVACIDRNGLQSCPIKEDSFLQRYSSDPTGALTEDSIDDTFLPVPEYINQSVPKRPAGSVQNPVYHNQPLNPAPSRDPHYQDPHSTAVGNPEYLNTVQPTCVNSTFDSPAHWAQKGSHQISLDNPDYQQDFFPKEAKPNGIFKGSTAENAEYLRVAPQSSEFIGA

Compound: C=CC(=O)N1CCC[C@@H](n2nc(-c3ccc(Oc4ccccc4)cc3)c3c(N)ncnc32)C1 [Formula (X), l-[(3i?)-3-[4-amino-3-(4-phenoxyphenyl)-lH-pyrazolo[3,4-i]pyrimidin-l-yl]piperidin-l-yl]prop-2-en-l-one]
- inhibition of EGFR (in words) [1]: inhibits epidermal growth factor receptor (EGFR)
- Th17 development (in words) (CD4 + T cells): profound inhibition of Thl7 cells
- Treg development (in words) (CD4 + T cells): increase in Treg development
- inhibition of rituximab ADCC (in words) [2]: completely inhibited ADCC; also recorded: strongly inhibited the antibody-dependent lysis of target cells
- CD8+ T cell viability (in words) (CD8 + T cells [3]): strong, negative effect on CD8 + T cell viability
- onset of lymphocytosis after start of therapy [4]: 1-2 weeks
- time to plateau of lymphocytosis [4]: 2-3 cycles
- CD8+ T cell function as % cytotoxicity (in words) [5]: affects CD8 + T cell function
- bleeding events in CLL [6]: 63%
- inhibition of GPVI platelet aggregation (in words) [7]: significantly inhibits GPVI platelet aggregation
- IC50 ([7]; Homo sapiens, Platelet, read-out: IC50, GPVI platelet aggregation): 130 nM
- CD8+ T cell function as IFN-γ level (in words) (CD8 + T cells [8]): affects CD8 + T cell function; also recorded: significant loss of function
- EC50 [9]: 6.1 nM

Compound: C=CC(=O)Nc1cccc(Nc2nc(Nc3ccc(OCCOC)cc3)ncc2F)c1 [Formula (XVII), N-(3-((5-fluoro-2-((4-(2-methoxyethoxy)phenyl)amino)pyrimidin-4-yl)amino)phenyl)acrylamide, reference compound]
- effect on thrombus formation (in words) [10]: interfere with thrombus formation; also recorded: an effect similar to Formula (X) (ibrutinib)

Compound: Nc1ccn([C@@H]2O[C@H](CO)[C@@H](O)C2(F)F)c(=O)n1 [gemcitabine, 4-amino-l-((2i?,4i?,5i?)-3,3-difluoro-4-hydroxy-5-(hydroxymethyl)tetrahydrofuran-2-yl)pyrimidin-2(lH)-one]
- ORR [11]: 7%
- median OS [11]: 6.7 months
- median PFS [11]: 3.7 months

Compound: obinutuzumab: humanized monoclonal antibody directed against CD20
- MRD-negative complete responses (CLL; [12]): 1
- response rate (CLL; [12]): 62%
- infusion related reactions (IRR), Grade 3 (CLL; R/R CLL, Phase 1 portion, n=13): 15%
- infusion related reactions (IRR), Grade 4 (in words) (CLL; R/R CLL, Phase 1 portion, n=13): no Grade 4
- infusion related reactions (IRR), all grade (CLL; R/R CLL, Phase 1 portion, n=13): 100 % of patients
- Grade 3 reactions among those with hypotension (CLL; R/R CLL, Phase 2 portion): 25%
- IRR cases developing symptoms of hypotension (CLL; R/R CLL, Phase 2 portion): 60 % of cases
- patients with IRR (CLL; R/R CLL, Phase 2 portion): 95 % of patients
